Values of other authors in patent US9205144B2, “Identification of conserved peptide blocks in homologous polypeptides” (Dana-Farber Cancer Institute, Inc., priority 2011, dated 2015).

Tests used:
HLA-03 = HLA-03 (Homo sapiens, UniProt P04439)
Sequence of HLA-03 (P04439 25-365): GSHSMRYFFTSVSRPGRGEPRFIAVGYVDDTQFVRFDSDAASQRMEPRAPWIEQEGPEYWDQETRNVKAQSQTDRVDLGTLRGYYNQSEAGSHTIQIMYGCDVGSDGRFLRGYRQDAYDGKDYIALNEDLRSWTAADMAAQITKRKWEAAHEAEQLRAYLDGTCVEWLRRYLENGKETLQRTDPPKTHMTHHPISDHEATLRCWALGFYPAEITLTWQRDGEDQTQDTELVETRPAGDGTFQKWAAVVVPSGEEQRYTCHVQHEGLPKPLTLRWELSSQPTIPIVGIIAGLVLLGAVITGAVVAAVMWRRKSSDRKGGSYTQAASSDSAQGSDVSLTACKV
Sequence of HLA-03 (P61769 21-119, further chain): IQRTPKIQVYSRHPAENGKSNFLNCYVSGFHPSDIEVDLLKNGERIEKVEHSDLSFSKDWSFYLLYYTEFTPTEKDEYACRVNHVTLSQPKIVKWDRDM

KTFDTEYQK (listed as Dengue virus) [Peptide 1]
known ligand: ligand for HLA-03 (HLA-03) | ligand for HLA-31 (HLA-31) | ligand for HLA-11 (HLA-11)
